Test results taken from patent US10010400B2, “Devices and methods for local delivery of drug to upper urinary tract” (TARIS Biomedical LLC, priority 2015, dated 2018).

Assay: in vitro osmotic pumping of methylene blue up a capillary tube from a closed drug reservoir
Type: physicochemical
Conditions: reservoir with urea and lactose tablets in 125 mL degassed, deionized water; 36 cm capillary tube extended vertically
Excerpt: Another experimental system was designed to simulate a ureteral drug delivery device having a flexible elongate body with a bladder end portion and a kidney end portion, a drug reservoir located at the bladder end portion which contains a drug and has a semi-permeable wall, and a drug lumen (capillary tube) having a first opening into the drug reservoir and a second end opening at the kidney end portion of the flexible elongate body. The ureteral drug delivery device used in the experiments was configured to permit water to enter the drug reservoir through the semi-permeable wall to create an osmotic pressure to pump the drug from the drug reservoir through the capillary tube and out of the device through the second end opening.
In this experiment, a drug reservoir similar to that illustrated in FIG. 11A was prepared. In particular, a spacer end piece was adhered using silicone adhesive within a tubular silicone housing. 10.5 cm of urea tablets, 4 cm of lactose tablets, and one tablet containing methylene blue were loaded into the tubular housing. A capillary tube (36 cm) having two spacers disposed in a spaced relationship at one end was slid into the tubular housing of the drug reservoir, adjacent the methylene blue tablet. […]

movement of the dye up the capillary tube: observed
SMILES: CN(C)c1ccc2nc3ccc(=[N+](C)C)cc-3sc2c1 [methylene blue]
